Measured values as given in patent US7569573B2, “Diketo acids with nucleobase scaffolds: anti-HIV replication inhibitors targeted at HIV integrase” (The University of Georgia Research Foundation, Inc., priority 2005, dated 2009).
Where two headings read alike, the source gives them in different places.

Legend:
[1] = Cytotoxicity (CC50) in the PBMC cell-based anti-HIV assay
HIV = test: In vitro anti-HIV activity, PBMC cell-based assay, side by side with AZT; settings: Human immunodeficiency virus 1
[2] = literature values, same sources as the IC50; cited from earlier work

SMILES	CC50 [1] [µM]	IC50 (HIV) [µM]	CC50 [2] [µM]
O=C(O)/C(O)=C/C(=O)c1cn(Cc2ccccc2)c(=O)n(Cc2ccccc2)c1=O	> 200	0.02	
O=C(O)C(=O)CC(=O)c1cc(OCc2ccccc2)cc(OCc2ccccc2)c1 [Example L-708906]			88.3
O=C(/C=C(\O)c1nc[nH]n1)c1ccc(Cc2ccc(F)cc2)o1 [Example S-1360]			110
